# Square brackets hold non-standard residues; d marks the D form. Peptide text beside a SMILES is read from it. * marks the point of attachment. Boc = CC(C)(C)OC(=O)*; OtBu = CC(C)(C)O*
# Tested on: tobacco bacterial rot (Pectobacterium carotovorum)
# Experiment: Suppression of tobacco bacterial rot
# Format: in vivo, Pectobacterium carotovorum SCC1
# Method: A tobacco or cucumber was sown in a plastic pot with a diameter of 10 cm×13 cm, and then, 12 pots were added in a yellow box. After seeding, 100 μL was inoculated to the cotyledons of cucumber or tobacco, in which first leaf was started to come out. The test compounds were dissolved in 20% methanol to make a stock solution, and then, the stock solution was diluted to the concentrations of 1, 10, and 100 ppm.
# After 7 days, the pathogen of a plant bacterial rot (Pectobacterium carotovorum SCC1) was cultured in a TSA medium for 27 hours; and then, the cultured pathogen was sprayed in a concentration of 10^8 cfu/mL to the plant leaves, and cultured at 30° C. for 3 days. The plant anthracnose germ (Colletotrichum orbiculare) was cultured in a GBA (Green bean agar) medium to induce spores for about 2 to 3 weeks. The germ was sprayed in a concentration of 10^5 cell/mL and then cultured at 26° C. for 1 day. When fourth or fifth leaf came out, 200 μL of each of the test compounds was inoculated to third leaf. After 7 days, the pathogen of the plant bacterial rot was sprayed to the plant leaves in the concentration of 10^8 cfu/mL, and then cultured at 30° C. for 3 days.
# The investigation was performed with naked eyes, and the lesion relative areas were investigated until 0 to 100% according to the shortness degrees of the bacterial rot. The anthracnose was investigated by counting the number of lesions occurred on the leaves.
smiles,measurement,setting,value
COC(=O)[C@H]1CCCN1C(=O)[C@H](Cc1c[nH]cn1)NC(=O)OC(C)(C)C [Compound 46],Lesion outbreak rate,"Table 4, tobacco, 1 ppm",56%
same,Lesion outbreak rate,"Table 4, tobacco, 10 ppm",70%
same,Lesion outbreak rate,"Table 4, tobacco, 100 ppm",48%
COC(=O)[C@H]1CCCN1C(=O)CNC(=O)OC(C)(C)C [Compound 38] (Boc-Gly-[dP]-OMe),Lesion outbreak rate,"Table 4, tobacco, 1 ppm",13%
same,Lesion outbreak rate,"Table 4, tobacco, 10 ppm",80%
same,Lesion outbreak rate,"Table 4, tobacco, 100 ppm",60%
COC(=O)[C@@H]1CCCN1C(=O)[C@@H](CO)NC(=O)OC(C)(C)C [Compound 60] (Boc-[dS]-Pro-OMe),Lesion outbreak rate,"Table 5, tobacco, 10 ppm",18%
same,Lesion outbreak rate,"Table 5, tobacco, 100 ppm",56%
COC(=O)[C@@H]1CCCN1C(=O)[C@@H](Cc1ccccc1)NC(=O)OC(C)(C)C [Compound 59] (Boc-[dF]-Pro-OMe),Lesion outbreak rate,"Table 5, tobacco, 10 ppm",38%
same,Lesion outbreak rate,"Table 5, tobacco, 100 ppm",25%
COC(=O)C1CCCN1C(=O)C(NC(=O)OC(C)(C)C)C(C)O (stereo not drawn) [Compound 47] (Boc-Thr-Pro-OMe; configuration not given here),Lesion outbreak rate,"Table 5, tobacco, 10 ppm",0%
same,Lesion outbreak rate,"Table 5, tobacco, 100 ppm",50%
COC(=O)[C@H]1CCCN1C(=O)[C@H](C)NC(=O)OC(C)(C)C [Compound 44] (Boc-Ala-[dP]-OMe),Lesion outbreak rate,"Table 4, tobacco, 1 ppm",46%
same,Lesion outbreak rate,"Table 4, tobacco, 10 ppm",37%
same,Lesion outbreak rate,"Table 4, tobacco, 100 ppm",33%
COC(=O)[C@H]1CCCN1C(=O)[C@H](Cc1c[nH]c2ccccc12)NC(=O)OC(C)(C)C [Compound 43] (Boc-Trp-[dP]-OMe),Lesion outbreak rate,"Table 4, tobacco, 1 ppm",35%
same,Lesion outbreak rate,"Table 4, tobacco, 10 ppm",45%
same,Lesion outbreak rate,"Table 4, tobacco, 100 ppm",31%
COC(=O)[C@H]1CCCN1C(=O)[C@H](CCSC)NC(=O)OC(C)(C)C [Compound 40] (Boc-Met-[dP]-OMe),Lesion outbreak rate,"Table 4, tobacco, 1 ppm",8%
same,Lesion outbreak rate,"Table 4, tobacco, 10 ppm",45%
same,Lesion outbreak rate,"Table 4, tobacco, 100 ppm",43%
COC(=O)[C@@H]1CCCN1C(=O)[C@H]1CCCN1C(=O)OC(C)(C)C [Compound 55] (Boc-[dP]-Pro-OMe),Lesion outbreak rate,"Table 5, tobacco, 10 ppm",48%
same,Lesion outbreak rate,"Table 5, tobacco, 100 ppm",36%
COC(=O)[C@H]1CCCN1C(=O)[C@@H](CCSC)NC(=O)OC(C)(C)C [Compound 68] (Boc-[dM]-[dP]-OMe),Lesion outbreak rate,"Table 6, tobacco, 1 ppm",78%
same,Lesion outbreak rate,"Table 6, tobacco, 10 ppm",53%
same,Lesion outbreak rate,"Table 6, tobacco, 100 ppm",25%
COC(=O)[C@@H]1CCCN1C(=O)[C@H](C)NC(=O)OC(C)(C)C [Compound 20] (Boc-Ala-Pro-OMe),Lesion outbreak rate,"Table 6, tobacco, 1 ppm",56%
same,Lesion outbreak rate,"Table 6, tobacco, 10 ppm",63%
same,Lesion outbreak rate,"Table 6, tobacco, 100 ppm",51%
COC(=O)[C@H]1CCCN1C(=O)[C@H](Cc1ccc(O)cc1)NC(=O)OC(C)(C)C [Compound 35] (Boc-Tyr-[dP]-OMe),Lesion outbreak rate,"Table 4, tobacco, 1 ppm",18%
same,Lesion outbreak rate,"Table 4, tobacco, 10 ppm",43%
same,Lesion outbreak rate,"Table 4, tobacco, 100 ppm",50%
CCOC(=O)[C@H](C)NC(=O)[C@@H](N)CC(C)C [Compound 10] (H-Leu-Ala-OEt),Lesion outbreak rate,"Table 3, tobacco, 1 ppm",80%
same,Lesion outbreak rate,"Table 3, tobacco, 10 ppm",73%
same,Lesion outbreak rate,"Table 3, tobacco, 100 ppm",87%
COC(=O)[C@H]1CCCN1C(=O)[C@H](CC(C)C)NC(=O)OC(C)(C)C [Compound 36] (Boc-Leu-[dP]-OMe),Lesion outbreak rate,"Table 4, tobacco, 1 ppm",45%
same,Lesion outbreak rate,"Table 4, tobacco, 10 ppm",41%
same,Lesion outbreak rate,"Table 4, tobacco, 100 ppm",38%
COC(=O)[C@H](C)NC(=O)[C@H](C)NC(=O)OC(C)(C)C [Compound 13] (Boc-Ala-Ala-OMe),Lesion outbreak rate,"Table 6, tobacco, 1 ppm",100%
same,Lesion outbreak rate,"Table 6, tobacco, 10 ppm",100%
same,Lesion outbreak rate,"Table 6, tobacco, 100 ppm",28%
COC(=O)[C@H](CC(C)C)NC(=O)[C@@H](N)CO [Compound 2] (H-Ser-Leu-OMe),Lesion outbreak rate,"Table 3, tobacco, 1 ppm",60%
same,Lesion outbreak rate,"Table 3, tobacco, 10 ppm",39%
same,Lesion outbreak rate,"Table 3, tobacco, 100 ppm",41%
COC(=O)CNC(=O)CNC(=O)OC(C)(C)C [Compound 18] (Boc-Gly-Gly-OMe),Lesion outbreak rate,"Table 6, tobacco, 1 ppm",80%
same,Lesion outbreak rate,"Table 6, tobacco, 10 ppm",75%
same,Lesion outbreak rate,"Table 6, tobacco, 100 ppm",68%
COC(=O)[C@@H]1CCCN1C(=O)[C@@H](CC(C)C)NC(=O)OC(C)(C)C [Compound 57] (Boc-[dL]-Pro-OMe),Lesion outbreak rate,"Table 5, tobacco, 10 ppm",25%
same,Lesion outbreak rate,"Table 5, tobacco, 100 ppm",25%
COC(=O)[C@H](C)NC(=O)[C@@H](NC(=O)OC(C)(C)C)C(C)C [Compound 12] (Boc-Val-Ala-OMe),Lesion outbreak rate,"Table 6, tobacco, 1 ppm",45%
same,Lesion outbreak rate,"Table 6, tobacco, 10 ppm",33%
same,Lesion outbreak rate,"Table 6, tobacco, 100 ppm",25%
COC(=O)[C@H]1CCCN1C(=O)[C@@H](CCC(N)=O)NC(=O)OC(C)(C)C [Compound 72] (Boc-[dQ]-[dP]-OMe),Lesion outbreak rate,"Table 6, tobacco, 1 ppm",55%
same,Lesion outbreak rate,"Table 6, tobacco, 10 ppm",72%
same,Lesion outbreak rate,"Table 6, tobacco, 100 ppm",45%
COC(=O)[C@H](CC(C)C)NC(=O)[C@H](CO)NC(=O)OC(C)(C)C [Compound 1] (Boc-Ser-Leu-OMe),Lesion outbreak rate,"Table 3, tobacco, 1 ppm",73%
same,Lesion outbreak rate,"Table 3, tobacco, 10 ppm",10%
same,Lesion outbreak rate,"Table 3, tobacco, 100 ppm",57%
COC(=O)[C@H]1CCCN1C(=O)[C@H](CO)NC(=O)OC(C)(C)C [Compound 39] (Boc-Ser-[dP]-OMe),Lesion outbreak rate,"Table 4, tobacco, 1 ppm",35%
same,Lesion outbreak rate,"Table 4, tobacco, 10 ppm",10%
same,Lesion outbreak rate,"Table 4, tobacco, 100 ppm",43%
COC(=O)[C@H]1CCCN1C(=O)[C@@H](Cc1c[nH]c2ccccc12)NC(=O)OC(C)(C)C [Compound 73] (Boc-[dW]-[dP]-OMe),Lesion outbreak rate,"Table 6, tobacco, 1 ppm",35%
same,Lesion outbreak rate,"Table 6, tobacco, 10 ppm",60%
same,Lesion outbreak rate,"Table 6, tobacco, 100 ppm",46%
CCOC(=O)[C@H](C)NC(=O)[C@H](CC(C)C)NC(=O)OC(C)(C)C [Compound 9] (Boc-Leu-Ala-OEt),Lesion outbreak rate,"Table 3, tobacco, 1 ppm",90%
same,Lesion outbreak rate,"Table 3, tobacco, 10 ppm",53%
same,Lesion outbreak rate,"Table 3, tobacco, 100 ppm",82%
COC(=O)[C@@H]1CCCN1C(=O)[C@H](NC(=O)OC(C)(C)C)C(C)C [Compound 56] (Boc-[dV]-Pro-OMe),Lesion outbreak rate,"Table 5, tobacco, 10 ppm",13%
same,Lesion outbreak rate,"Table 5, tobacco, 100 ppm",40%
COC(=O)[C@@H]1CCCN1C(=O)[C@H](CCCCNC(=O)OC(C)(C)C)NC(=O)OC(C)(C)C [Compound 28] (Boc-Lys(Boc)-Pro-OMe),Lesion outbreak rate,"Table 4, tobacco, 1 ppm",20%
same,Lesion outbreak rate,"Table 4, tobacco, 10 ppm",80%
same,Lesion outbreak rate,"Table 4, tobacco, 100 ppm",13%
COC(=O)[C@@H]1CCCN1C(=O)[C@H](Cc1c[nH]cn1)NC(=O)OC(C)(C)C [Compound 29],Lesion outbreak rate,"Table 4, tobacco, 1 ppm",63%
same,Lesion outbreak rate,"Table 4, tobacco, 10 ppm",43%
same,Lesion outbreak rate,"Table 4, tobacco, 100 ppm",63%
COC(=O)[C@H](Cc1c[nH]c2ccccc12)NC(=O)[C@@H](NC(=O)OC(C)(C)C)C(C)C [Compound 17] (Boc-Val-Trp-OMe),Lesion outbreak rate,"Table 6, tobacco, 1 ppm",100%
same,Lesion outbreak rate,"Table 6, tobacco, 10 ppm",25%
same,Lesion outbreak rate,"Table 6, tobacco, 100 ppm",100%
COC(=O)[C@@H]1CCCN1C(=O)[C@H](CC(=O)OC(C)(C)C)NC(=O)OC(C)(C)C [Compound 25] (Boc-Asp(OtBu)-Pro-OMe),Lesion outbreak rate,"Table 4, tobacco, 1 ppm",50%
same,Lesion outbreak rate,"Table 4, tobacco, 10 ppm",70%
same,Lesion outbreak rate,"Table 4, tobacco, 100 ppm",50%
COC(=O)[C@@H]1CCCN1C(=O)[C@H](Cc1ccccc1)NC(=O)OC(C)(C)C [Compound 19] (Boc-Phe-Pro-OMe),Lesion outbreak rate,"Table 6, tobacco, 1 ppm",49%
same,Lesion outbreak rate,"Table 6, tobacco, 10 ppm",42%
same,Lesion outbreak rate,"Table 6, tobacco, 100 ppm",50%
COC(=O)C1CCCN1C(=O)C(NC(=O)OC(C)(C)C)C(C)O (stereo not drawn) [Compound 24] (Boc-Thr-Pro-OMe; configuration not given here),Lesion outbreak rate,"Table 4, tobacco, 1 ppm",13%
same,Lesion outbreak rate,"Table 4, tobacco, 10 ppm",65%
same,Lesion outbreak rate,"Table 4, tobacco, 100 ppm",33%
COC(=O)[C@@H]1CCCN1C(=O)[C@@H]1CCCN1C(=O)OC(C)(C)C [Compound 27] (Boc-Pro-Pro-OMe),Lesion outbreak rate,"Table 4, tobacco, 1 ppm",33%
same,Lesion outbreak rate,"Table 4, tobacco, 10 ppm",30%
same,Lesion outbreak rate,"Table 4, tobacco, 100 ppm",20%
COC(=O)[C@@H]1CCCN1C(=O)[C@H](CCC(=O)OC(C)(C)C)NC(=O)OC(C)(C)C [Compound 30] (Boc-Glu(OtBu)-Pro-OMe),Lesion outbreak rate,"Table 4, tobacco, 1 ppm",23%
same,Lesion outbreak rate,"Table 4, tobacco, 10 ppm",36%
same,Lesion outbreak rate,"Table 4, tobacco, 100 ppm",13%
COC(=O)[C@H]1CCCN1C(=O)[C@@H](Cc1ccc(O)cc1)NC(=O)OC(C)(C)C [Compound 71] (Boc-[dY]-[dP]-OMe),Lesion outbreak rate,"Table 6, tobacco, 1 ppm",60%
same,Lesion outbreak rate,"Table 6, tobacco, 10 ppm",65%
same,Lesion outbreak rate,"Table 6, tobacco, 100 ppm",40%
COC(=O)[C@@H]1CCCN1C(=O)[C@H](CCC(N)=O)NC(=O)OC(C)(C)C [Compound 23] (Boc-Gln-Pro-OMe),Lesion outbreak rate,"Table 6, tobacco, 1 ppm",25%
same,Lesion outbreak rate,"Table 6, tobacco, 10 ppm",52%
same,Lesion outbreak rate,"Table 6, tobacco, 100 ppm",36%
COC(=O)[C@H](Cc1c[nH]c2ccccc12)NC(=O)CNC(=O)OC(C)(C)C [Compound 16] (Boc-Gly-Trp-OMe),Lesion outbreak rate,"Table 6, tobacco, 1 ppm",25%
same,Lesion outbreak rate,"Table 6, tobacco, 10 ppm",25%
same,Lesion outbreak rate,"Table 6, tobacco, 100 ppm",53%
COC(=O)[C@H]1CCCN1C(=O)[C@@H](CO)NC(=O)OC(C)(C)C [Compound 64] (Boc-[dS]-[dP]-OMe),Lesion outbreak rate,"Table 6, tobacco, 1 ppm",100%
same,Lesion outbreak rate,"Table 6, tobacco, 10 ppm",23%
same,Lesion outbreak rate,"Table 6, tobacco, 100 ppm",100%
COC(=O)[C@H]1CCCN1C(=O)[C@H](CC(=O)OC(C)(C)C)NC(=O)OC(C)(C)C [Compound 37] (Boc-Asp(OtBu)-[dP]-OMe),Lesion outbreak rate,"Table 4, tobacco, 1 ppm",5%
same,Lesion outbreak rate,"Table 4, tobacco, 10 ppm",5%
same,Lesion outbreak rate,"Table 4, tobacco, 100 ppm",43%
COC(=O)[C@H]1CCCN1C(=O)[C@@H](CC(C)C)NC(=O)OC(C)(C)C [Compound 75] (Boc-[dL]-[dP]-OMe),Lesion outbreak rate,"Table 6, tobacco, 1 ppm",25%
same,Lesion outbreak rate,"Table 6, tobacco, 10 ppm",80%
same,Lesion outbreak rate,"Table 6, tobacco, 100 ppm",100%
COC(=O)[C@H]1CCCN1C(=O)[C@H](NC(=O)OC(C)(C)C)C(C)C [Compound 76] (Boc-[dV]-[dP]-OMe),Lesion outbreak rate,"Table 6, tobacco, 1 ppm",46%
same,Lesion outbreak rate,"Table 6, tobacco, 10 ppm",41%
same,Lesion outbreak rate,"Table 6, tobacco, 100 ppm",37%
COC(=O)[C@@H]1CCCN1C(=O)[C@@H](Cc1c[nH]c2ccccc12)NC(=O)OC(C)(C)C [Compound 52] (Boc-[dW]-Pro-OMe),Lesion outbreak rate,"Table 5, tobacco, 10 ppm",0%
same,Lesion outbreak rate,"Table 5, tobacco, 100 ppm",25%
